Data: patent US20020137929A1, “1 - (3-heterocyclylphenyl) isothiourea, -isourea, -guanidine and -amidine herbicidal agents” (Intellectual Property Department, BASF Aktiengesellschaft, priority 1998, published 2002)

Legend:
[1] = tested on: GALAP (Galium); test: Postemergence herbicidal evaluation; format: in vivo, Galium aparine; conditions: postemergence
In short: (§1)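 Herbicidal effect was judged by eye on a 0–9 scale covering stand, vigor, deformity, size and chlorosis, compared with controls, four to five weeks after seedlings about two weeks old were sprayed (40 psi, ~0.0156–0.500 kg/ha).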

[2] = tested on: ZEAMX (Corn, Field); test: Preemergence herbicidal evaluation; format: in vivo, Zea mays; conditions: rated 4-5 weeks after treatment
In short: (§2)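 Test compound, dissolved in aqueous acetone, was sprayed over planted soil cups at an equivalent of about 0.0156 to 0.500 kg/ha; seeds had been mixed with potting soil. Greenhouse growth followed, with visual 0-9 scoring of injury at four to five weeks.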

[3] = tested on: ECHCG (Barnyardgrass); test: Postemergence herbicidal evaluation; format: in vivo, Echinochloa crus-galli; conditions: postemergence
In short: as §1

[4] = tested on: ORYSAT (Rice, Tebonnet); test: Postemergence herbicidal evaluation; format: in vivo, Oryza sativa, (L.) Tebonnet; conditions: postemergence
In short: as §1

[5] = tested on: CYPIR (Rice Flatsedge); test: Preemergence weed control under flooded paddy conditions; format: in vivo, Cyperus iria; conditions: rated 3-4 weeks after treatment
In short: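 Visual injury scored 0-9 against control three to four weeks post-treatment, greenhouse-grown. Application: acetone/water (50/50) solutions dosed directly into flood water (1.5-3 cm over silt loam, planted top 0.5 cm), roughly 0.0313 to 0.500 kg/ha active ingredient.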

[6] = tested on: CASOB (Sicklepod); test: Preemergence herbicidal evaluation; format: in vivo, Cassia obtusifolia; conditions: rated 4-5 weeks after treatment
In short: as §2

[7] = tested on: CASOB (Sicklepod); test: Postemergence herbicidal evaluation; format: in vivo, Cassia obtusifolia; conditions: postemergence
In short: as §1

[8] = tested on: SAGPY (Arrowhead (Pygmaea)); test: Preemergence weed control under flooded paddy conditions; format: in vivo, Sagittaria pygmaea; conditions: rated 3-4 weeks after treatment
In short: (§3)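 Flooded-pot preemergence screen with silt loam and seeds in the upper 0.5 cm. Dose about 0.0313 to 0.500 kg/ha, delivered into flood water; visual 0-9 score after 3 to 4 weeks.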

[9] = tested on: CYPSE (Flatsedge); test: Postemergence weed control under flooded paddy conditions; format: in vivo, Cyperus serotinus; conditions: postemergence weeds, rated 3 to 4 weeks after treatment
In short: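 Flood-water application, about 0.0313–0.500 kg/ha a.i. in aqueous/acetone 50/50 v/v; water depth 1.5–3 cm throughout. Weeds 3–5 cm, rice 1.5–2.5 leaf. Greenhouse; 0–9 visual rating vs control at 3–4 wk.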

[10] = tested on: GLXMAW (Soybean, Williams); test: Postemergence herbicidal evaluation; format: in vivo, Glycine max, (L.) Merr. cv Williams; conditions: postemergence
In short: as §1

[11] = tested on: CHEAL (Lambsquarters, Common); test: Postemergence herbicidal evaluation; format: in vivo, Chenopodium album; conditions: postemergence
In short: as §1

[12] = tested on: SETVI (Foxtail, Green); test: Postemergence herbicidal evaluation; format: in vivo, Setaria viridis; conditions: postemergence
In short: as §1

[13] = tested on: CYPSE (Flatsedge); test: Preemergence weed control under flooded paddy conditions; format: in vivo, Cyperus serotinus; conditions: rated 3-4 weeks after treatment
In short: as §3

[14] = tested on: GALAP (Galium); test: Preemergence herbicidal evaluation; format: in vivo, Galium aparine; conditions: rated 4-5 weeks after treatment
In short: as §2

[15] = tested on: AMBEL (Ragweed, Common); test: Postemergence herbicidal evaluation; format: in vivo, Ambrosia artemisifolia; conditions: postemergence
In short: as §1

COC(=O)[C@@H](Cc1ccccc1)N1C(=O)CSC1=Nc1cc(-n2c(=O)cc(C(F)(F)F)n(C)c2=O)c(F)cc1Cl [Compound 74, Methyl α-benzyl-2-{{2-chloro-5-[3,6-dihydro-3-methyl-2,6-dioxo-4-(trifluoromethyl)-1(2H)-pyrimidinyl]-4-fluorophenyl}imino}-4-oxo-3-thiazolidineacetate, D-] showed a GALAP herbicidal rating ([1]; rate 0.0158 kg/ha) of 1.0, a GALAP herbicidal rating ([1]; rate 0.0315 kg/ha) of 4.0 and a GALAP herbicidal rating ([1]; rate 0.0630 kg/ha) of 9.0. For the same compound, the “Preemergence herbicidal rating ZEAMX” value ([2]; rate 0.0156 kg/ha) was 0.0, the “Preemergence herbicidal rating ZEAMX” value ([2]; rate 0.0313 kg/ha) was 0.0 and the “Preemergence herbicidal rating ZEAMX” value ([2]; rate 0.0625 kg/ha) was 0.0. For the same compound, the “Preemergence herbicidal rating ZEAMX” value ([2]; rate 0.1250 kg/ha) was 1.0, the “Preemergence herbicidal rating ZEAMX” value ([2]; rate 0.2500 kg/ha) was 1.0 and the ECHCG herbicidal rating ([3]; rate 0.0158 kg/ha) was 1.0. It also gave an ECHCG herbicidal rating ([3]; rate 0.0315 kg/ha) of 1.0, an ECHCG herbicidal rating ([3]; rate 0.0630 kg/ha) of 1.0 and an ORYSAT herbicidal rating ([4]; rate 0.0158 kg/ha) of 3.5. The ORYSAT herbicidal rating ([4]; rate 0.0315 kg/ha) was 4.5, the ORYSAT herbicidal rating ([4]; rate 0.0630 kg/ha) was 5.5 and the “CYPIR herbicidal effect rating” value ([5]; 0.0313 kg/ha) was 0.0. For the same compound, the “CYPIR herbicidal effect rating” value ([5]; 0.0625 kg/ha) was 0.0, the “CYPIR herbicidal effect rating” value ([5]; 0.1250 kg/ha) was 0.0 and the “CYPIR herbicidal effect rating” value ([5]; 0.2500 kg/ha) was 0.0. For the same compound, the “Preemergence herbicidal rating CASOB” value ([6]; rate 0.0156 kg/ha) was 0.0, the “Preemergence herbicidal rating CASOB” value ([6]; rate 0.0313 kg/ha) was 0.0 and the “Preemergence herbicidal rating CASOB” value ([6]; rate 0.0625 kg/ha) was 0.0. For the same compound, the “Preemergence herbicidal rating CASOB” value ([6]; rate 0.1250 kg/ha) was 0.0, the “Preemergence herbicidal rating CASOB” value ([6]; rate 0.2500 kg/ha) was 0.0 and the CASOB herbicidal rating ([7]; rate 0.0158 kg/ha) was 3.0. For the same compound, the CASOB herbicidal rating ([7]; rate 0.0315 kg/ha) was 4.0, the CASOB herbicidal rating ([7]; rate 0.0630 kg/ha) was 9.0 and the “SAGPY herbicidal effect rating” value ([8]; 0.0313 kg/ha) was 3.0. The “SAGPY herbicidal effect rating” value ([8]; 0.0625 kg/ha) was 3.0, the “SAGPY herbicidal effect rating” value ([8]; 0.1250 kg/ha) was 3.0 and the “SAGPY herbicidal effect rating” value ([8]; 0.2500 kg/ha) was 9.0. For the same compound, the “Herbicidal rating CYPSE” value ([9]; Rate 0.0313 kg/ha) was 0.0, the “Herbicidal rating CYPSE” value ([9]; Rate 0.0625 kg/ha) was 5.0 and the “Herbicidal rating CYPSE” value ([9]; Rate 0.1250 kg/ha) was 5.0. The “Herbicidal rating CYPSE” value ([9]; Rate 0.2500 kg/ha) was 9.0, the GLXMAW herbicidal rating ([10]; rate 0.0158 kg/ha) was 5.5 and the GLXMAW herbicidal rating ([10]; rate 0.0315 kg/ha) was 5.0. For the same compound, the GLXMAW herbicidal rating ([10]; rate 0.0630 kg/ha) was 6.5, the CHEAL herbicidal rating ([11]; rate 0.0158 kg/ha) was 9.0 and the CHEAL herbicidal rating ([11]; rate 0.0315 kg/ha) was 9.0. For the same compound, the SETVI herbicidal rating ([12]; rate 0.0158 kg/ha) was 1.0, the SETVI herbicidal rating ([12]; rate 0.0315 kg/ha) was 1.0 and the SETVI herbicidal rating ([12]; rate 0.0630 kg/ha) was 2.0. For the same compound, the “CYPSE herbicidal effect rating” value ([13]; 0.0313 kg/ha) was 0.0, the “CYPSE herbicidal effect rating” value ([13]; 0.0625 kg/ha) was 5.0 and the “CYPSE herbicidal effect rating” value ([13]; 0.1250 kg/ha) was 5.0. For the same compound, the “CYPSE herbicidal effect rating” value ([13]; 0.2500 kg/ha) was 9.0, the “Preemergence herbicidal rating GALAP” value ([14]; rate 0.0156 kg/ha) was 0.0 and the “Preemergence herbicidal rating GALAP” value ([14]; rate 0.0313 kg/ha) was 0.0. The “Preemergence herbicidal rating GALAP” value ([14]; rate 0.0625 kg/ha) was 0.0, the “Preemergence herbicidal rating GALAP” value ([14]; rate 0.1250 kg/ha) was 0.0 and the “Preemergence herbicidal rating GALAP” value ([14]; rate 0.2500 kg/ha) was 9.0. For the same compound, the AMBEL herbicidal rating ([15]; rate 0.0158 kg/ha) was 9.0, the AMBEL herbicidal rating ([15]; rate 0.0315 kg/ha) was 9.0 and the AMBEL herbicidal rating ([15]; rate 0.0630 kg/ha) was 9.0.
